According to patent US6994981B2, “Modulators of paraptosis and related methods” (The Buck Institute, priority 2002, dated 2006):
Entries after “also recorded” stand apart in the source; their conditions may differ.

Legend:
[1] = system: caspases, calpains, proteasome; test: Protease activation during SP-induced cell death, substrate hydrolysis in cytosolic extracts of NK1R-transfected 293T cells; format: biochemical, human
Description: Preparation of cell-free extract for kinetic studies: 293T cells seeded at the density of 2 million cells per 10 cm dish were transfected with NK1R cDNA using Lipofectamine 2000 (Gibco) according the instructions provided by the manufacturer. After 24 hr 10 nM SP was added to half of the culture dishes. At 24 hr later the cells were washed with ice cold PBS and collected with a cell scraper. The cells pelleted at 700×g for 4 min were resuspended in cell lysis buffer at pH 7.4 containing 1 mM dithiothreitol at a ratio of 1:1 (v/v). After 30 min on ice the swelled cells were disrupted with 20 strokes using a 27 gauge needle and further spun at 16,000×g for 30 min. The pellet was discarded and the supernatant which represents the cytosolic fraction was aliquoted and stored at −80° C. or used in the kinetic studies. The protein concentration was determined using the Bradford assay (Pierce).
For kinetic studies, the proteolytic activities were followed fluorometrically by monitoring AFC or AMC release from 100 μM of the corresponding substrates (Enzyme Systems Products): Caspase-1 like, Ac-YVAD-AFC; caspase-2, Ac-VDVAD-AFC; caspases-3 like, Ac-DEVD-AFC; caspase-6, Ac-VEID-AFC; caspase-8, Ac-IETD-AFC; caspase-9, Ac-LEHD-AFC. Calpain activity was monitored with 100 μM Suc-LY-AFC (succinyl-Leu-Tyr-7-amino-4-methylcoumarin, Enzyme Systems Products) at 5 μM and 5 mM CaCl2. The chymotrypsin activity of the proteasome was followed with 100 μM Suc-LLVY-AFC (succinyl-Leu-Leu-Val-Tyr-7-amino-4-methylcoumarin, Enzyme Systems Products), and cathepsins were assayed using 20 μM Z-FR-AMC (Benzyloxycarbonyl-Phe-Arg-7-amino-4-methylcoumarin, Bachem). A 10 μl aliquot of extract in the presence or absence of SP was added to 90 μl of substrate at the appropriate concentration and pH. The reaction was continuously monitored during 30 min and 37° C. in a fluorescence microplate reader (Molecular Devices). The instrument was set at excitation and emission wavelengths of 405 and 510 for AFC releasing group, and 370 and 460 nm, for AMC releasing group, respectively. The steady-state hydrolysis rates were obtained from the linear part of the curves.

cytochrome c release = settings: cell-free system of apoptosis; cited from earlier work
[2] = system: striatal, cortical, and hippocampal neurons; test: SP-induced cell death in primary striatal, cortical and hippocampal neurons, trypan blue viability and staining; format: cell-based, rat
Description: Rat neuronal primary cell cultures were also used to assay for inducers and inhibitors of paraptosis. Briefly, primary striatal, cortical and hippocampal cultures were prepared from 17-day-old Sprague-Dawley rat embryos (B&K). The tissue was dissected, minced and trypsinized for five minutes using 0.25% trypsin (Cell Grow). After the addition of 10% horse serum (Life Technologies) to inhibit the trypsin, the cell suspension was triturated 15–20 times with a 10 ml syringe and centrifuged for five minutes at 800×g. The pellet was resuspended in MEM-PAK (UCSF Cell Culture facility), supplemented with 2.02 gm glucose, 2 mM GLUTAMAX™ (Life Technologies) and penicillin/streptomycin (100 U/ml). The suspension was filtered through a […] cell strainer and the final culture medium contained 5% horse serum. Subsequently, 3-4×10^5 cells per Cm^2 were seeded onto either poly-D-lysine precoated 8-well chamber slides (Becton-Dickson Labware) or 96 well plates precoated with […] of poly-D-lysine (Sigma) in water. After 30 minutes of incubation time, unattached cells were removed together with the medium and replaced with glucose enriched MEM-PAK plus 5% horse serum. The cultures were then incubated at 37° C. in 95% air 5% carbon dioxide with 95% humidity. Cultures were used for experiments between day 1 and day 7 when glial contamination was at a minimum.
Primary neuronal cells were prepared as described in Example I. SP (SIGMA) at a concentration of 0.1 nM–100 μM was added 24–48 hrs after seeding, in the presence of 2.5% horse serum. When the cultures were maintained for more than 5 days, 10 μM cytosine arabinoside was added for 24 hours, beginning 3 days after plating the cells. Viability was quantified by trypan blue staining of the total cell population.
The following compounds were added at the same time as SP in the indicated experiments: 5 nM L-732, 138; 1 nM L-733,060; 1 μg/ml Actinomycin D or 1 μg/ml Cycloheximide. All of these compounds were obtained from SIGMA. The caspase inhibitors zVAD.fmk and BAF were added at 50 μM and obtained from Enzyme System Products, Livermore, Calif.
Either neuronal primary cultures or human embryonic kidney 293T cells were fixed with 4% paraformaldehyde and stained with 0.5 μg/ml DAPI (Molecular Probes) or Hoechst(SIGMA). […]
The protein kinase inhibitors were added 30 min before SP exposure at the following concentrations: 10 μM Rp-8-Br-cAMPS (adenosin 3′,5′-cyclic monophosphorothioate, 8-bromo-, Rp-isomer, sodium salt) which is a PKA inhibitor; 50 nM Calphostin C, which is a PKC inhibitor; 10 μM PD 98059 which is a MAPKK (MEK) inhibitor. These compounds were obtained from Calbiochem. Viability was quantified by trypan blue staining of the total cell population.

cytoplasmic calcium = test: Imaging of cytoplasmic calcium in single striatal cells; format: cell-based
Description: Single-cell imaging was performed in a Merlin imaging facility (Olympus America, USA) using an Olympus IX70 inverted epifluorescence microscope equipped with a 40× oil immersion objective and a Spectramaster monochromator (Life Science Resources, Cambridge, UK) (excitation, 340 and 380 nm; emission >505 nm). Cells were loaded with 3 μM Fura-2 AM (from TEF LABS, Texas, USA) for 30 min in incubation medium containing (in mM): 120 NaCl, 3.5 KCl, 1.3 CaCl2, 0.4 KH2PO4, 20 TES buffer, 5 NaHCO3, 1.2 Na2SO4, 15 Glucose, 1.2 MgCl2, pH adjusted to 7.4 with NaOH. 30 μg/ml bovine serum albumin was also added. Experiments were performed in a non-perfusing thermostatted chamber (37° C.) with incubation medium without bovine serum albumin (Castilho et al., J. Neurosci. 18:10277–10286 (1998)).

fibroblasts = test: SP toxicity to fibroblasts; format: cell-based; settings: extracellular SP

## SP: eleven amino acid neurotransmitter of the tachykinin family, ligand of NK1R
[1]
  activation of calpains and chymotrypsin-like activity of the proteasome: no significant effect on the rates of substrate hydrolysis
[1]; 10 nM SP, 24 hr
  hydrolysis of substrates for initiator and executioner caspases: no hydrolysis of substrates
[1]; extracts with granzyme B added
  DEVDase activity in response to SP stimulation: no significant difference
Cytochrome c release
  cytochrome c release: can induce cytochrome c release
[2]; 48 hours after exposure
  sensitivity of neurons to SP: sensitive to micromolar concentrations
[2]; L or D isomer
  effect of SP isomer on neuronal cell death: induced cell death
[2]; seven days after exposure, SP added only once
  sensitivity of neurons to SP: sensitive to nanomolar concentrations
Cytoplasmic calcium
  change in cytoplasmic calcium: did not induce a detectable change
fibroblasts
  toxicity to fibroblasts: resistant to micromolar concentrations; also recorded: not toxic
